According to ChEMBL document CHEMBL5543086, “Discovery of novel NSAID hybrids as cPLA2/COX-2 dual inhibitors alleviating rheumatoid arthritis via inhibiting p38 MAPK pathway” (Eur J Med Chem, 2024):
Calls of active or inactive are those of the source.

Key:
RAW264.7 [1] = assay: Antiinflammatory activity against LPS-induced mouse RAW264.7 cells assessed as inhibition of cPLA2 protein expression pretreated for 1 hr followed by LPS stimulation and measured after 24 hrs by Western blot analysis; type: functional, cell-based; conditions: dose 2.5-10 µM, time 25.0 hrs
RAW264.7 [2] = assay: Antiinflammatory activity against LPS-induced mouse RAW264.7 cells assessed as inhibition of iNOS protein expression pretreated for 1 hr followed by LPS stimulation and measured after 24 hrs by Western blot analysis; type: functional, cell-based; conditions: dose 2.5-10 µM, time 25.0 hrs
[3] = Toxicity in male Wistar rat assessed as gastrointestinal damage by measuring level-2 ulcers with 1 to 3 mm area at 100 mg/kg administered by gavage and measured after 6 hrs; type: organism-based; conditions: in vivo, po
Rattus norvegicus [4] = assay: Immunomodulatory activity in Freund's complete adjuvant induced Lewis rat model of arthritis assessed as increase in CD4positive CD25positive Treg cells in peripheral blood at 20 mg/kg, po administered every 24 hrs for 28 days post immunization starting from day 8 post immunization by flow cytometry analysis; type: functional, organism-based; conditions: time 21.0 day
[5] = Toxicity in male Wistar rat assessed as gastrointestinal damage by measuring level-3 ulcers with >3 mm area at 50 mg/kg administered by gavage and measured after 6 hrs; type: organism-based; conditions: in vivo, po
Rattus norvegicus [6] = assay: Antiarthritic activity in Freund's complete adjuvant induced Lewis rat model of arthritis assessed as reduction in TNFalpha level in serum at 20 mg/kg, po administered every 24 to 48 hrs for 28 days post immunization starting from day 8 post immunization by ELISA; type: functional, organism-based; conditions: time 21.0 day
Rattus norvegicus [7] = assay: Immunomodulatory activity in Freund's complete adjuvant induced Lewis rat model of arthritis assessed as increase in CD4positive CD25positive Treg cells in spleen at 20 mg/kg, po administered every 24 hrs for 28 days post immunization starting from day 8 post immunization by flow cytometry analysis; type: functional, organism-based; conditions: time 21.0 day
Rattus norvegicus [8] = assay: Antiarthritic activity in Freund's complete adjuvant induced Lewis rat model of arthritis assessed as reduction in joint deformities induced walking and polyarthritis symptoms at 20 mg/kg, po administered every 24 to 48 hrs for 28 days post immunization starting from day 8 post immunization; type: functional, organism-based; conditions: time 21.0 day
[9] = Toxicity in male Wistar rat assessed as gastrointestinal damage by measuring level-1 ulcers with <1 mm area at 100 mg/kg administered by gavage and measured after 6 hrs; type: organism-based; conditions: in vivo, po
Rattus norvegicus [10] = assay: (§1) Immunomodulatory activity in Freund's complete adjuvant induced Lewis rat model of arthritis assessed as increase in IL-10 level in serum at 20 mg/kg, po administered every 24 to 48 hrs for 28 days post immunization starting from day 8 post immunization by ELISA; type: functional, organism-based; conditions: time 21.0 day
RAW264.7 [11] = assay: Cytotoxicity against LPS-induced mouse RAW264.7 cells assessed as reduction in cell viability at 30 uM pretreated for 1 hr followed by LPS addition and measured after 24 hrs by MTT assay; type: toxicity, cell-based; conditions: raw264.7, 25 h
Rattus norvegicus [12] = assay: Antiarthritic activity in Freund's complete adjuvant induced Lewis rat model of arthritis assessed as reduction in arthritis score at 20 mg/kg, po administered every 24 to 48 hrs for 28 days post immunization starting from day 8 post immunization; type: functional, organism-based; conditions: time 21.0 day
RAW264.7 [13] = assay: Antiinflammatory activity in LPS-induced mouse RAW264.7 cells assessed as inhibition of NO production pretreated for 1 hr followed by LPS stimulation and measured after 24 hrs by griess reagent based assay; type: functional, cell-based
[14] = Toxicity in male Wistar rat assessed as gastrointestinal damage by measuring level-1 ulcers with <1 mm area at 50 mg/kg administered by gavage and measured after 6 hrs; type: organism-based; conditions: in vivo, po
Rattus norvegicus [15] = assay: as §1, with “decrease” for “increase”, “anti-IL-17 antibody expression” for “IL-10 level”, “knee joint slices” for “serum”, “immunohistochemistry analysis” for “ELISA”; type: functional, organism-based; conditions: time 21.0 day
Rattus norvegicus [16] = assay: Antiarthritic activity in Freund's complete adjuvant induced Lewis rat model of arthritis assessed as modulation of immune system responses by measuring reduction in spleen weight at 20 mg/kg, po administered every 24 to 48 hrs for 28 days post immunization starting from day 8 post immunization; type: functional, organism-based; conditions: time 21.0 day
Rattus norvegicus [17] = assay: Immunomodulatory activity in Freund's complete adjuvant induced Lewis rat model of arthritis assessed as reduction in IL-17 level in serum at 20 mg/kg, po administered every 24 to 48 hrs for 28 days post immunization starting from day 8 post immunization by ELISA; type: functional, organism-based; conditions: time 21.0 day
[18] = Toxicity in male Wistar rat assessed as gastrointestinal damage by measuring level-2 ulcers with 1 to 3 mm area at 50 mg/kg administered by gavage and measured after 6 hrs; type: organism-based; conditions: in vivo, po
Mus musculus = species on record: Mus musculus; assay: Analgesic activity in mouse model assessed as reduction in acetic acid induced inflammatory pain; type: functional, organism-based
RAW264.7 [19] = assay: Antiinflammatory activity in LPS-induced mouse RAW264.7 cells assessed as inhibition of NO production at 10 uM pretreated for 1 hr followed by LPS stimulation and measured over 48 hrs by griess reagent based assay; type: functional, cell-based; conditions: time > 49.0 hrs
[20] = Toxicity in male Wistar rat assessed as gastrointestinal damage by measuring number of ulcers at 50 mg/kg administered by gavage and measured after 6 hrs (reference value: 0); type: organism-based; conditions: in vivo, po
[21] = Toxicity in male Wistar rat assessed as gastrointestinal damage by measuring ulcer index at 100 mg/kg administered by gavage and measured after 6 hrs; type: organism-based; conditions: in vivo, po
Rattus norvegicus [22] = assay: Antiarthritic activity in Freund's complete adjuvant induced Lewis rat model of arthritis assessed as reduction in joint deformities at 20 mg/kg, po administered every 24 to 48 hrs for 28 days post immunization starting from day 8 post immunization; type: functional, organism-based; conditions: time 21.0 day
Rattus norvegicus [23] = assay: Antiarthritic activity in Freund's complete adjuvant induced Lewis rat model of arthritis assessed as reduction in IL-17 protein expression at 20 mg/kg, po administered every 24 to 48 hrs for 28 days post immunization starting from day 8 post immunization by Western blot analysis; type: functional, organism-based; conditions: time 21.0 day
Rattus norvegicus [24] = assay: as §1, with “anti-IL-10 antibody expression” for “IL-10 level”, “knee joint slices” for “serum”, “immunohistochemistry analysis” for “ELISA”; type: functional, organism-based; conditions: time 21.0 day
RAW264.7 [25] = assay: Antiinflammatory activity in LPS-induced mouse RAW264.7 cells assessed as inhibition of PGE2 production at 10 uM pretreated for 1 hr followed by LPS stimulation and measured after 24 to 48 hrs by ELISA; type: functional, cell-based; conditions: time 25-49 hrs
Rattus norvegicus [26] = assay: Antiarthritic activity in Freund's complete adjuvant induced Lewis rat model of arthritis assessed as reduction in IL-6 level in serum at 20 mg/kg, po administered every 24 to 48 hrs for 28 days post immunization starting from day 8 post immunization by ELISA; type: functional, organism-based; conditions: time 21.0 day
[27] = Nephrotoxicity in male Wistar rat assessed as effect on blood urea nitrogen level at 20 mg/kg, po administered for 3 days; type: toxicity, organism-based; conditions: in vivo, 72 h, time 3 day
Rattus norvegicus [28] = assay: Antiarthritic activity in Freund's complete adjuvant induced Lewis rat model of arthritis assessed as inhibition of left hind paw edema at 20 mg/kg, po administered every 24 to 48 hrs for 28 days post immunization starting from day 8 post immunization; type: functional, organism-based; conditions: time 21.0 day

CCCCC/C=C\C/C=C\C/C=C\C/C=C\CC/C=C(/OC(=O)C(C)c1ccc(C(=O)c2ccccc2)cc1)C(F)(F)F (centres undefined)
active: Activity (RAW264.7 [1]) Dose-Dependent Effect | Activity (RAW264.7 [2]) Dose-Dependent Effect | Activity (Rattus norvegicus [4]) | Activity (Rattus norvegicus [6]) | Activity (Rattus norvegicus [7]) | Activity (Rattus norvegicus [8]) | Activity (Rattus norvegicus [10]) | Activity (Rattus norvegicus [12]) | Activity (Rattus norvegicus [15]) | Activity (Rattus norvegicus [16]) | Activity (Rattus norvegicus [17]) | Activity (Mus musculus) | Activity (RAW264.7 [19]) | Activity (Rattus norvegicus [22]) | Activity (Rattus norvegicus [23]) | Activity (Rattus norvegicus [24]) | Activity (RAW264.7 [25]) | Activity (Rattus norvegicus [26]) | Activity (Rattus norvegicus [28])
8: UI [21]
Non-Toxic: Activity (RAW264.7 [11]) | Activity [27]
86%: Activity [9]
0: Activity [20]
3.85 µM: IC50 (RAW264.7 [13])
14%: Activity [3]
0%: Activity [5] | Activity [14] | Activity [18]
